Test results published in ChEMBL document CHEMBL1158627, “Non-basic ligands for aminergic GPCRs: the discovery and development diaryl sulfones as selective, orally bioavailable 5-HT2A receptor antagonists for the treatment of sleep disorders” (Bioorg Med Chem Lett, 2010).
The source made the active and inactive calls. The calls are words filed in the database; no cut-off is given here.

Assays:
Rattus norvegicus [1] = test: Ex vivo receptor occupancy of 5HT2A receptor in rat brain at 10 mg/kg, po after 0.5 hrs; type: functional
[2] = molecular target: T1, 5-hydroxytryptamine receptor 2C (Homo sapiens, UniProt P28335); test: biochemical
T1 sequence (P28335 whole entry): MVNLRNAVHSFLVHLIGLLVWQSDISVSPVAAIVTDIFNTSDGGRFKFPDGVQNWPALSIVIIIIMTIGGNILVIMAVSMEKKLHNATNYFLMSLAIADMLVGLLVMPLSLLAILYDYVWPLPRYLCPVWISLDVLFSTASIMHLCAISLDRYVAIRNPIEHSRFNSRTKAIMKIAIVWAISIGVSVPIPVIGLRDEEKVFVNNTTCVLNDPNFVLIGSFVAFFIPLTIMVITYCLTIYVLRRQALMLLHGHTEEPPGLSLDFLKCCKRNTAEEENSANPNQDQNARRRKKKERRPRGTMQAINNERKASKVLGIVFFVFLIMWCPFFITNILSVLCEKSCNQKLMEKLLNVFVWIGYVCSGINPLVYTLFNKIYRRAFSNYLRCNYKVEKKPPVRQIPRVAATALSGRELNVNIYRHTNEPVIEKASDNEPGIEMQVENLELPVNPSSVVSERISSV
Description: Displacement of [3H]mesulergine from human 5HT2C receptor expressed CHO cells

[3] = Plasma concentration in rat at <1 mg/kg, po after 2 hrs; type: ADME, organism-based
Canis familiaris [4] = test: Cardiotoxicity in dog assessed as increase of QT interval up to 10 mg/kg, iv; type: toxicity, organism-based, Canis lupus familiaris; set-up: dose 10 mg/kg, route intravenous; conditions: in vivo
[5] = Plasma clearance in dog at 0.1 mg/kg, iv and 1 mg/kg, po; type: ADME, organism-based, Canis lupus familiaris
[6] = Half life in rhesus monkey at 0.1 mg/kg, iv and 1 mg/kg, po; type: ADME, organism-based, Macaca mulatta; conditions: in vivo
Rattus norvegicus [7] = test: Decrease of number of awakenings in rat at 3 mg/kg, po after 15 hrs by EMG recordings; type: functional, organism-based; set-up: dose 3 mg/kg
[8] = Metabolic stability in human liver microsomes assessed as compound turnover after 0.25 hrs by LC/MS/MS analysis; set-up: dose or concentration left out as unconfirmed
[9] = Bioavailability in rhesus monkey; type: ADME, organism-based, Macaca mulatta; conditions: in vivo
[10] = Metabolic stability in dog liver microsomes assessed as compound remaining […] after 0.25 hrs by LC/MS/MS analysis; type: ADME, Canis lupus familiaris, Microsome; conditions: read-out: Stability
Rattus norvegicus [11] = test: Sedative activity in rat assessed effect on time spent on rapid eye movement sleep at 3 mg/kg, po after 15 hrs; type: ADME, organism-based; set-up: dose 3 mg/kg, route oral; conditions: in vivo
Canis familiaris [12] = test: Cardiotoxicity in dog assessed as increase of heart rate up to 10 mg/kg, iv; type: toxicity, organism-based, Canis lupus familiaris; set-up: dose 10 mg/kg, route intravenous; conditions: in vivo
[13] = molecular target: Voltage-gated inwardly rectifying potassium channel KCNH2 (Homo sapiens, UniProt Q12809); test: Displacement of [3H]-dofetilide from human ERG receptor expressed HEK cells
Rattus norvegicus [14] = test: Increase of slow wave sleep in rat at 3 mg/kg, po after 15 hrs by EEG recordings; type: functional, organism-based; set-up: dose 3 mg/kg
[15] = Metabolic stability in rat liver microsomes assessed as compound remaining […] after 0.25 hrs by LC/MS/MS analysis; type: ADME, Microsome; conditions: read-out: Stability
Rattus norvegicus [16] = test: Ex vivo receptor occupancy of 5HT2A receptor in rat brain at 1 mg/kg, po after 0.5 hrs; type: functional
[17] = molecular target: 5-hydroxytryptamine receptor 2A (Homo sapiens, UniProt P28223); test: biochemical
Description: Displacement of [3H]- ketanserin from human 5HT2A receptor expressed CHO cells

[18] = Volume of distribution at steady state in Sprague-Dawley rat at 0.1 mg/kg, iv and 1 mg/kg, po; type: ADME, organism-based; conditions: in vivo, read-out: Vdss
[19] = molecular target: Cytochrome P450 2C9 (Homo sapiens) (UniProt P11712); test: Inhibition of CYP2C9 at 6 uM
[20] = Half life in Sprague-Dawley rat at 0.1 mg/kg, iv and 1 mg/kg, po; type: ADME, organism-based; conditions: in vivo
[21] = Stability after 5 days; type: physicochemical; conditions: 120 h
[22] = Induction of cytochrome P450 activity at 10 uM; type: ADME
[23] = Plasma clearance in Sprague-Dawley rat at 0.1 mg/kg, iv and 1 mg/kg, po; type: ADME, organism-based
[24] = Inhibition of CYP1A at 4.8 uM; type: ADME
[25] = Plasma clearance in rhesus monkey at 0.1 mg/kg, iv and 1 mg/kg, po; type: ADME, organism-based, Macaca mulatta
[26] = Metabolic stability in rhesus monkey liver microsomes assessed as compound remaining […] after 0.25 hrs by LC/MS/MS analysis; type: ADME, Macaca mulatta, Microsome; conditions: read-out: Stability
[27] = Bioavailability in dog; type: ADME, organism-based, Canis lupus familiaris; conditions: in vivo
Rattus norvegicus [28] = test: Ex vivo receptor occupancy of 5HT2A receptor in rat brain at <1 mg/kg, po after 2 hrs; type: functional
Rhesus monkey = test: Plasma concentration in rhesus monkey; type: ADME, organism-based, Macaca mulatta; conditions: in vivo
[29] = Half life in dog at 0.1 mg/kg, iv and 1 mg/kg, po; type: ADME, organism-based, Canis lupus familiaris; conditions: in vivo
[30] = Inhibition of cytochrome P450 at > 30 uM; type: ADME
Mus musculus = test: Phototoxicity in mouse assessed as formation of erythema at 10 to 2000 mg/kg, po; type: organism-based; set-up: dose 10-2000 mg/kg, route oral; conditions: in vivo
Rattus norvegicus [31] = test: Sedative activity in rat assessed effect on sleep onset at 3 mg/kg, po after 15 hrs; type: ADME, organism-based; set-up: dose 3 mg/kg, route oral; conditions: in vivo
[32] = Bioavailability in rat; type: ADME, organism-based; conditions: in vivo
Rattus norvegicus [33] = test: Ex vivo receptor occupancy of 5HT2A receptor in rat brain at 3 mg/kg, po after 2 hrs; type: functional, organism-based; set-up: dose 3 mg/kg
[34] = Chemical stability in acetonitrile/water at pH 1 to 10 after 5 days; type: physicochemical; conditions: pH 1, 120 h

Sequence of 5-hydroxytryptamine receptor 2A (P28223 whole entry): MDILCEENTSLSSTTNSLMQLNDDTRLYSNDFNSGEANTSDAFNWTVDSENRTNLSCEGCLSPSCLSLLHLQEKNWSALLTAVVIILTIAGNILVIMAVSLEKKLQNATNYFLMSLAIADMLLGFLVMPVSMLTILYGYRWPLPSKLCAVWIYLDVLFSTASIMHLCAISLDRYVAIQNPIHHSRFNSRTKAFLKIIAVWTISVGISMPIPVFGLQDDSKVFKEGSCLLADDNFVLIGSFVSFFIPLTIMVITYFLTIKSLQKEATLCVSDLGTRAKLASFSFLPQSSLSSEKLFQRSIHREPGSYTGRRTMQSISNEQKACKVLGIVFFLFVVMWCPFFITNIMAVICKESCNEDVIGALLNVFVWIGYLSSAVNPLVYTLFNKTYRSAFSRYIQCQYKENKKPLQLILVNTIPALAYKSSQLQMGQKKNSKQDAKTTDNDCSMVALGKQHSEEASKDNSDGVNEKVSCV
Sequence of Voltage-gated inwardly rectifying potassium channel KCNH2 (Q12809 whole entry): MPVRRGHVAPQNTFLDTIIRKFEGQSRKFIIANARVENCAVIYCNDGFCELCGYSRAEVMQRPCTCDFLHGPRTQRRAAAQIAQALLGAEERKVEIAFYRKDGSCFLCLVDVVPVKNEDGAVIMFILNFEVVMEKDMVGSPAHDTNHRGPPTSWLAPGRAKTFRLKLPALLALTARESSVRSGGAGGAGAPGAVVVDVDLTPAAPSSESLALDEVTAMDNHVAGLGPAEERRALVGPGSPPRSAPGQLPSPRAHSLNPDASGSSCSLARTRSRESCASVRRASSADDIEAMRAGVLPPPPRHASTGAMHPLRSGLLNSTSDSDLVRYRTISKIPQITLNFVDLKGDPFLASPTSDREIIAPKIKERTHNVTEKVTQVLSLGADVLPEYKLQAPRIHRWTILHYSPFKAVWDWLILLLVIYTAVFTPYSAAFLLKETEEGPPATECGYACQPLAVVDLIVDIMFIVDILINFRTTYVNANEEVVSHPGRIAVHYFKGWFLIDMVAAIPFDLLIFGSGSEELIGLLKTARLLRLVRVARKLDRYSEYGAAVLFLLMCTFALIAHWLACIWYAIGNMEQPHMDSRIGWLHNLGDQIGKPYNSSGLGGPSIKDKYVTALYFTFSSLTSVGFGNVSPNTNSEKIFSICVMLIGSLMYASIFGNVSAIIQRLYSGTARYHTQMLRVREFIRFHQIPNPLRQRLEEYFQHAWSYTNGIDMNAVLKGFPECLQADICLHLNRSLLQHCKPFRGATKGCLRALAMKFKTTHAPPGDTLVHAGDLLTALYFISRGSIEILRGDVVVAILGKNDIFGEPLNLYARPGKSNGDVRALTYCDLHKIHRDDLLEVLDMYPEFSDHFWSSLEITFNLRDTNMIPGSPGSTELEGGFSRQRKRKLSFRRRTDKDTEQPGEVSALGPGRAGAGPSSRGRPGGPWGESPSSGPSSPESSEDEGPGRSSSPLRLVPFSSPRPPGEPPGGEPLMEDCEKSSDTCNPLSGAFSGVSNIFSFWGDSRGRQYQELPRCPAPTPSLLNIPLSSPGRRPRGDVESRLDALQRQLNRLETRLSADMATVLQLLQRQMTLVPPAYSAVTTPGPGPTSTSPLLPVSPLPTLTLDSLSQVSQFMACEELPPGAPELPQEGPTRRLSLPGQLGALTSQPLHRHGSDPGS
Sequence of Cytochrome P450 2C9 (Homo sapiens) (P11712 whole entry, looked up): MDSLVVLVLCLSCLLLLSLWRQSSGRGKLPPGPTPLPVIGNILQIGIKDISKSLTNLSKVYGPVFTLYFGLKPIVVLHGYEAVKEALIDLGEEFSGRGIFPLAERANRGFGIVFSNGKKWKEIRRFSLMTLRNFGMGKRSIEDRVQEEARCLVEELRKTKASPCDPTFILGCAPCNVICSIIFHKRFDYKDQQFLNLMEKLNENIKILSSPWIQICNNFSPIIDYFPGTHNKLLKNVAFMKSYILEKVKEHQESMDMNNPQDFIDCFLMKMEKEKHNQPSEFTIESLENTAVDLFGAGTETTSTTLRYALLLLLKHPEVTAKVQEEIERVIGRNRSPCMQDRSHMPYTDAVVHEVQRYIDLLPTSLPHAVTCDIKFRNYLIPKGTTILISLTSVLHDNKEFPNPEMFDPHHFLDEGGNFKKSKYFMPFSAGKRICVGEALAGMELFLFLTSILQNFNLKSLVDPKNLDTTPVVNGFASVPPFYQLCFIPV

With `O=S(=O)(c1ccc(F)cc1)C1(F)CCN(CCc2ccc(F)cc2F)CC1` the Activity (Rattus norvegicus [1]) was 98% and the Ki [2] was 69 nM.
With `C[C@H](O)c1ccccc1S(=O)(=O)c1ccc(/C=C/c2ccc(F)cc2)cc1` the concentration at 2 h [3] was 60 nM, the Activity (Canis familiaris [4]) was “Non-toxic” and the clearance [5] was 8 mL/min/kg. The half-life [6] was 2.13 h, the Activity (Rattus norvegicus [7]) was “Active” and the turnover at 0.25 h [8] was 45%. The bioavailability [9] was 10%, the remaining at 0.25 h [10] was 34% and the Activity (Rattus norvegicus [11]) was “Non-toxic”. The Activity (Canis familiaris [12]) was “Non-toxic”, the Ki [13] was 8250 nM and the Activity (Rattus norvegicus [14]) was “Active”. The remaining at 0.25 h [15] was 50%, the Activity (Rattus norvegicus [16]) was 83% and the Ki [17] was 0.22 nM. For the same compound, the Vd [18] was 19 L/kg, the INH [19] was 6 µM and the half-life [20] was 3.8 h. The Stability [21] was “Stable”, the Activity [22] was 8% and the clearance [23] was 95 mL/min/kg. For the same compound, the IC50 [24] was 4800 nM, the clearance [25] was 32 mL/min/kg and the remaining at 0.25 h [26] was 44%. For the same compound, the bioavailability [27] was 45%, the Ki [2] was 47 nM and the Activity (Rattus norvegicus [28]) was 80%. For the same compound, the concentration (Rhesus monkey) was 170 nM, the half-life [29] was 3.15 h and the IC50 [30] was > 30000 nM. For the same compound, the Activity (Mus musculus) was “Toxic”, the Activity (Rattus norvegicus [31]) was “Non-toxic” and the bioavailability [32] was 44%. The Activity (Rattus norvegicus [33]) was “Active” and the Stability [34] was “Stable”.
In the case of `O=S(=O)(c1ccccc1)c1ccc(CCc2ccc(F)cc2F)cc1`, the turnover at 0.25 h [8] is reported as 84%, the Ki [13] is reported as > 9000 nM and the Ki [17] is reported as 1.43 nM. The Ki [2] was 526 nM.
With `O=C(c1ccccc1F)N1CCC(CCc2ccc(F)cc2F)CC1` the turnover at 0.25 h [8] was 99%, the Activity (Rattus norvegicus [1]) was 40% and the Ki [13] was > 9000 nM. The Ki [2] was 100 nM.
In the case of `O=S(=O)(c1cccc2cccnc12)N1CCC(CCc2ccc(F)cc2F)CC1`, the Ki [13] is reported as > 9000 nM, the Ki [17] is reported as 2.1 nM and the Ki [2] is reported as 184 nM.
